How the values were obtained:
GPR142 = assay: G protein-coupled receptor (GPCR) array in NHEK cells, GPR142 (Example 3); format: cell-based, human; details: Compound 1 1 μM, 3 days
Description: (§1) In this example, the expression-increasing effect of Compound 1 on a GPCR in NHEK cells was confirmed by using a GPCR array.
(§2) 1) 5×10^4 cells/well of NHEK cells (Invitrogen) were plated on a 24-well plate, and then 500 μl of a culture medium containing a medium for proliferating normal human epidermal keratinocytes (HuMedia-KG2, KURABO INDUSTRIES LTD.) supplemented with hEGF (0.1 ng/ml), insulin (10 μg/ml), hydrocortisone (0.5 μg/ml), gentamycin (50 μg/ml), amphotericin B (50 ng/ml), and bovine brain pituitary extract (BPE) (0.4%, v/v) were added to the plate, and the cells were cultured under the conditions of 37° C. and 5% CO2 for from 3 to 4 days until the 80 to 85% confluent state was achieved.
(§3) 2) Next, a DMSO solution of Compound 1 was added to the medium at 1 μM per well, and culture was further conducted for 3 days without changing the medium. In addition, regarding the system to which only CaCl2 (1.5 mM in terms of Ca) as Ca was added and the system to which both Compound 1 and CaCl2 (1.5 mM in terms of Ca) as Ca were added, the culture was conducted in a similar manner for 3 days. As a control example, a solvent only (vehicle) was added.
3) An extraction reagent (TRIzol™, Invitrogen) was used, and according to the manufacturer's protocol, total RNA was extracted from each of cells treated in the step 2). A reverse transcriptase reagent (Prime Script™, Takara) was used, and according to the manufacturer's protocol, cDNA was prepared from the total RNA. Next, a TaqMan™ human GPCR array (AB 4365295, Applied Biosystems) was used, and the analysis was conducted by an ABI PRISM™ 7900HT gene analyzer (Applied Biosystems). The result of measurement was shown as the comparison of the cycle number (ΔCt value) to 18S ribosomal RNA as a control (comparative Ct method).

GPR22 = assay: G protein-coupled receptor (GPCR) array in NHEK cells, GPR22 (Example 3); format: cell-based, human; details: Compound 1 1 μM, 3 days
Description: as §1, §2, §3
3) An extraction reagent (TRIzol™, Invitrogen) was used, and according to the manufacturer's protocol, total RNA was extracted from each of cells treated in the step 2). […]

GPR142 mRNA = GPR142 mRNA expression in NHEK cells, real-time PCR (Example 4); format: cell-based, human; details: Compound 1 1 μM, Ca 1.2 mM, 3 days, compared to the control
Description: In this example, the expression-inducing effects of Compound 1 on GPR142 mRNA and GPR22 mRNA in NHEK cells were confirmed.
as §2, with “plate. Then,” for “plate, and then”, “CO2.” for “CO2 for from 3 to 4 days until the 80 to 85% confluent state was achieved.”
2) After culture under the conditions of the step 1) for 1 day, the medium was exchanged for the culture medium of the step 1) to which a DMSO solution of Compound 1 was added at 1 μM per well every day and the culture was conducted for 3 days. […]
3) An extraction reagent (TRIzol™, Invitrogen) was used, and according to the manufacturer's protocol, total RNA was extracted from each of cells treated with the medicament. […] Next, real-time PCR was conducted by using the following primers and SYBR™ Premix Ex Taq (Takara) with a CFX96 real-time PCR instrument according to the manufacturer's protocol, and the amounts of GPR142mRNA and GPR22mRNA expression were measured. […]

FLG monomer = assay: FLG monomer-producing effect in atopic dermatitis mouse model (NC/Nga), Western blotting (Example 15); format: in vivo; details: oral 0.75 mg every other day, 2 weeks, ear epidermis
Description: Experiments were conducted with raising 6- to 10-week-old atopic dermatitis-developing NC/Nga mice with mites (Japan SLC, Inc.) under a normal environment. Namely, 500 μl of a solution obtained by dissolving Compound 1 at 1.5 mg/ml in a methyl cellulose solution (0.5 W/V % Methyl Cellulose 400 Solution, Wako, 133-14255) were orally administered to an NC/Nga mouse developing dermatitis majorly in the ear auricles and the head (0.75 mg of Compound 1 was administered to the mouse per time) every other day. As a control, 500 μl of the methyl cellulose solution was orally administered every other day. The experiments were conducted by using five mice in each of a Compound 1-administered group and a control group.
2 weeks after the beginning of administration, ears of each mouse were cut under anesthesia, the skin of the cut ear was peeled off by pinching cartilage, and the skin on the dermal side was soaked in PBS containing 20 mM EDTA at 37° C. for 30 minutes. Next, the epidermis of the ear was peeled off and […] of Lysis buffer (0.1 M Tris-HCl (pH 9.0), 6 M Urea, 1% 2-mercapto-ethanol, 1% SDS, 1 mM EDTA, and Protease inhibitor cocktail) were added to the epidermis. The epidermis was homogenized with an electrically powered pestle, and the homogenized cells were centrifuged at 15,000 rpm at 4° C. for 20 minutes. […]

[1] = CaCl2 1.5 mM in terms of Ca, control 29.2

CCc1ccc(OCc2ccccc2C(=O)Nc2ccc3nc(C)cc(N)c3c2)cc1.Cl [Compound 1, N-(4-Amino-2-methyl-6-quinolyl)-2-[(4-ethylphenoxy)methyl]benzamide hydrochloride]
GPR142 mRNA expression (GPCR array), in words (GPR142; Ca 1.5 mM): expression was induced
GPR142: cycle number (ΔCt value) to 18S ribosomal RNA (GPR142; [1]): −4.9
GPR22 mRNA expression (GPCR array), in words (GPR22; Ca 1.5 mM): expression was induced
GPR22: cycle number (ΔCt value) to 18S ribosomal RNA (GPR22; [1]): 6.7
GPR142 mRNA expression (GAPDH ratio) (GPR142 mRNA): GPR142 mRNA expression was induced
production of FLG monomer (relative to GAPDH) (FLG monomer): clearly promoted the production of FLG monomer
